“Also recorded” adds a separate entry of the source.
How the values were obtained:
[1] = system: human Th1/Th17 cells; assay: In vitro assay using activated human T-cells differentiated into Th1/Th17 cells; cytokines released in the supernatant; assay type: cell-based
Procedure: CD4+ T cells were first negatively isolated from human peripheral blood of healthy donors using RosetteSep® separation system from STEMCELL.
Subsequently, CD4+ T cells were activated by crosslinking the cell surface proteins CD3 and CD28 with specific antibodies.
To induce Th1/Th17 differentiation, activated CD4+ T cells were then cultured in flasks at density of 2-5×10^6 cells per ml of culture in X-VIVO 15 serum-free medium in presence of growth and differentiation factors cocktail, containing the following: • rhIL-2 at 10 ng/ml • rhTGF-β at 10 ng/ml • rhIL-1β at 10 ng/ml • rhIL-6 at 10 ng/ml • rhIL-23 at 20 ng/ml • Antibody anti-IL-4 at 1 μg/ml • Antibody anti-IL-13 at 1 μg/ml
Culture media had been refreshed every second day and T cells were cultured up to 5-7 days to allow a complete differentiation into Th1/Th17 cells.
Once the T cells are differentiated into Th1/Th17 cells, cells are rinsed from the differentiation media and placed in assay media (X-VIVO 15 media containing 10 ng/ml rhIL-2 only) at the final concentration of 1-1.5×10^6 cells/ml in wells with 0.250 ml cell suspension per well (0.25-0.375×10^6 cells/well/sample) with and without test compound treatment for 24 hours. At the termination time point, the effect of anti-inflammatory drugs is assessed by measuring the level of phenotype related cytokines released in the cell culture supernatants. Duplicates and cells from different donors are used for each treatment.
After differentiation for 5-6 days, all the cells were carefully washed and placed in growth media containing IL-2 (X-VIVO+10 ng/ml IL-2) at a final concentration of 1-1.5×10^6 cells/ml. […] Assays were performed in duplicates and included undifferentiated human T cells (negative control) and treated or untreated differentiated human Th1/Th17 cells. All cells were cultured under similar conditions in assay media containing 0.1% DMSO with or without test compounds.
Th1/Th17 cells were treated for 24 hours with or without test compounds.
Supernatants were collected from all samples and assessed for cytokine expression (IL-6, IL-8, IL-17, IL-22 and TNF-α). All cytokines were measured (as pg/ml) using MSD kits except IL-22 which was measured by ELISA.
Data analysis and graphs were made in Excel or GraphPad Prism. Statistical analysis was made using 1 way ANOVA corrected by Dunnett's Multiple Comparison Test.

[2] = system: keratinocyte proliferation; settings: cited from earlier work
[3] = PDE4 inhibitor 1 μM alone or in combination with calcipotriol 100 nM
[4] = test compound alone, 24 hours, ELISA
[5] = vitamin D analogue 100 nM in combination with Compound A 1 μM

N#Cc1ccc(Oc2ccc3c(c2)COB3O)cc1 [AN2728, 4-(1-hydroxy-1,3-dihydro-2,1-benzoxaborol-5-yloxy)benzonitrile]
expression and secretion of IL-22 [1, 3]: comparable efficacy to Compound A

CCCNC(=O)COc1c(C(=O)Cc2ccnc(Cl)c2Cl)ccc(OC)c1OC [Compound A, 2-{6-[2-(2,3-dichloropyridin-4-yl)acetyl]-2,3-dimethoxyphenoxy}-N-propylacetamide]
expression of IL-22 ([1]; PDE4 inhibitor 1 μM alone, compared to vehicle treated control): increases
expression of IL-6 ([1]; test compound alone, 24 hours): weakly; also recorded: significantly inhibits
expression of IL-8 ([1]; test compound alone, 24 hours): did not have any effect
expression of IL-17 ([1]; test compound alone, 24 hours): to some degree
expression of TNFα ([1]; test compound alone, 24 hours): strongly decreased; also recorded: significantly inhibits
expression of IL-22 [1, 4]: dose-dependent upregulation; also recorded: increased; also recorded: significantly increases

COc1cccc(Nc2c(C(N)=O)cnc3c(C)cc(S(=O)(=O)c4cccc(C(=O)N(C)C)c4)cc23)c1.Cl [GSK256066, 6-[3-(N,N-dimethylcarbamoyl)phenylsulfonyl]-4-(3-methoxyphenylamino)-8-methylquinoline-3-carboxamide hydrochloride]
expression and secretion of IL-22 [1, 3]: comparable efficacy to Compound A

O=C(Nc1c(Cl)cncc1Cl)c1ccc(OC(F)F)c(OCC2CC2)c1 [Roflumilast, 3-(cyclopropylmethoxy)-N-(3,5-dichloropyridin-4-yl)4-(difluoromethoxy)benzamide]
expression and secretion of IL-22 [1, 3]: comparable efficacy to Compound A

CCOc1ccc(-c2nc(-c3cccc(C(=O)O)n3)cs2)cc1OCC [Tetomilast, 6-[2-(3,4-diethoxyphenyl)thiazol-4-yl]pyridine-2-caboxylic acid]
expression and secretion of IL-22 [1, 3]: comparable efficacy to Compound A

C=C1/C(=C\C=C2/CCC[C@]3(C)[C@@H]([C@H](C)/C=C/[C@@H](O)C4CC4)CC[C@@H]23)C[C@@H](O)C[C@@H]1O [calcipotriol, Calcipotriol]
concentration required to affect keratinocyte proliferation [2]: 28 nM
upregulation of IL-22 expression ([1]; calcipotriol 10 pM together with Compound A 1 μM): lost
upregulation of IL-22 expression ([1]; calcipotriol 100 pM together with Compound A 1 μM): inhibited the upregulation
upregulation of IL-22 expression ([1]; calcipotriol 500 pM together with Compound A 1 μM): inhibited the upregulation
upregulation of IL-22 expression ([1]; calcipotriol 1 nM together with Compound A 1 μM): inhibited the upregulation
upregulation of IL-22 expression ([1]; calcipotriol 100 nM together with Compound A 1 μM): inhibited the upregulation
expression of IL-6 ([1]; test compound alone, 24 hours): did not have any effect
expression of IL-8 ([1]; test compound alone, 24 hours): strongly inhibited
expression of IL-17 ([1]; test compound alone, 24 hours): to some extent
expression of TNFα ([1]; test compound alone, 24 hours): did not have any effect
expression of IL-22 [1, 4]: strongly inhibiting; also recorded: downregulate; also recorded: strongly inhibited
expression of IL-22 ([1]; test compound alone, 24 hours, ELISA, listed as Calcipotriol): significantly inhibits
expression of IL-8 ([1]; test compound alone, 24 hours, listed as Calcipotriol): inhibits
expression and secretion of IL-22 ([1]; vitamin D analogue 100 nM alone, compared to vehicle treated control): significantly inhibits
expression and secretion of IL-22 [1, 5]: comparable efficacy as Calcipotriol

C=C1/C(=C\C=C2/CCC[C@]3(C)[C@@H]([C@H](C)CCCC(C)(C)O)CC[C@@H]23)C[C@@H](O)C[C@@H]1O [calcitriol]
expression of IL-22 [1, 4]: downregulate
expression and secretion of IL-22 [1, 5]: comparable efficacy as Calcipotriol

C=C1/C(=C\C=C2/CCC[C@]3(C)[C@@H]([C@H](C)OCCC(C)(C)O)CC[C@@H]23)C[C@@H](O)C[C@@H]1O [maxacalcitol]
expression of IL-22 [1, 4]: downregulate
expression and secretion of IL-22 [1, 5]: comparable efficacy as Calcipotriol

C=C1/C(=C\C=C2/CCC[C@]3(C)[C@@H]([C@H](C)CC[C@@H](O)C(C)C)CC[C@@H]23)C[C@@H](O)C[C@@H]1O [tacalcitol]
expression of IL-22 [1, 4]: downregulate
expression and secretion of IL-22 [1, 5]: comparable efficacy as Calcipotriol
